The values that follow come from PubChem BioAssay (NCI).

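Tested at 5 concentrations; 48 h exposure; 96-well plates; endpoints linearly interpolated, else capped at highest concentration. The concentration for 50% growth inhibition is given as GI50. TGI is the concentration that stops growth completely.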 Some results are limits rather than exact numbers.

Among the test systems are HOP-92 NSCLC; HS 578T breast; MALME-3M melanoma; MOLT-4 leukemia; NCI-H226 lung; NCI/ADR-RES ovarian; SK-MEL-5 melanoma; T-47D breast; UACC-62 melanoma; MDA-MB-435.
Common to all, as to assay: DTP human tumour cell line panel, 48 h

Consider `COc1cc(NC(=O)c2cc3ccccc3cc2O)c(OC)cc1Cl`, for which the GI50 in the assay with HOP-92 NSCLC is 1.56 µM; with HS 578T breast, 2.11 µM; with MALME-3M melanoma, 0.335 µM; with MOLT-4 leukemia, 2.27 µM; in the assay on NCI-H226 lung it was 1.45 µM; in the assay on NCI/ADR-RES ovarian it was 1.99 µM. Moreover, the GI50 in the assay on SK-MEL-5 melanoma is 1.38 µM; in the assay with T-47D breast, 1.8 µM; with UACC-62 melanoma, 1.35 µM. In addition, the TGI with HOP-92 NSCLC came to 4.95 µM; in the assay with HS 578T breast, 8.85 µM; in the assay on MALME-3M melanoma it was 2.87 µM; in the assay on NCI-H226 lung it was 6.04 µM; in the assay on NCI/ADR-RES ovarian, 6.03 µM; with SK-MEL-5 melanoma, 2.93 µM. The TGI amounted to 6.15 µM in the assay with T-47D breast and 5.65 µM in the assay with UACC-62 melanoma.

Regarding `N#Cc1cc2c(=S)[nH]c(=S)[nH]c2nc1SCc1ccccc1`, the GI50 in the assay with HOP-92 NSCLC was 30.1 µM; in the assay on HS 578T breast it was 39.6 µM; in the assay on MDA-MB-435 it was 34.8 µM; in the assay with MOLT-4 leukemia, 43.3 µM; with NCI-H226 lung it was 24.4 µM; in the assay with NCI/ADR-RES ovarian, 28.1 µM. Besides, the GI50 was 20.7 µM in the assay on SK-MEL-5 melanoma and 17 µM with UACC-62 melanoma. The TGI in the assay on HOP-92 NSCLC was > 100 µM; in the assay on HS 578T breast, > 100 µM; in the assay on MDA-MB-435, > 100 µM; with MOLT-4 leukemia, > 100 µM; in the assay with NCI-H226 lung it was 94.3 µM; in the assay on NCI/ADR-RES ovarian, > 100 µM. For the same compound, the values for the TGI with SK-MEL-5 melanoma and in the assay on UACC-62 melanoma were 52.3 µM and 54.6 µM, respectively.

`COc1ccc(OC)c(-c2nc3sc(C)cn3c2/C=C2\C(=O)N(C)c3ccccc32)c1`: the GI50 with HS 578T breast is 23.6 µM; in the assay with MALME-3M melanoma, 28.5 µM; in the assay with MDA-MB-435, 4.04 µM; in the assay with MOLT-4 leukemia it was 15.9 µM; in the assay on NCI-H226 lung, 29.8 µM; in the assay on NCI/ADR-RES ovarian it was 15.7 µM. For the same compound, the GI50 in the assay on SK-MEL-5 melanoma is 14 µM; in the assay on T-47D breast it was 30.8 µM; in the assay with UACC-62 melanoma, 13.4 µM. Further, the TGI with HS 578T breast was 70.4 µM; in the assay on MALME-3M melanoma, 70.1 µM; in the assay on MDA-MB-435, 18.6 µM; in the assay on MOLT-4 leukemia, 59 µM; with NCI-H226 lung it was > 100 µM; with NCI/ADR-RES ovarian, 54.7 µM. The total growth inhibition concentration (TGI) with SK-MEL-5 melanoma stood at 27.3 µM; with T-47D breast, 73.7 µM; with UACC-62 melanoma, 31.1 µM.

Regarding `O=C(/C=C/c1cc(O)ccc1O)c1ccc(Cl)cc1`, the GI50 is > 100 µM in the assay with HOP-92 NSCLC; 30 µM in the assay with MDA-MB-435; > 100 µM with MOLT-4 leukemia; 22.3 µM in the assay with NCI-H226 lung; 19.6 µM with NCI/ADR-RES ovarian; 55 µM in the assay on SK-MEL-5 melanoma. In addition, the GI50 in the assay with T-47D breast is 36.5 µM; in the assay with UACC-62 melanoma it was 17.5 µM. Besides, the TGI in the assay on HOP-92 NSCLC is > 100 µM; in the assay with MDA-MB-435, > 100 µM; with MOLT-4 leukemia it was > 100 µM; in the assay with NCI-H226 lung, 66.8 µM; in the assay with NCI/ADR-RES ovarian, 53.9 µM; in the assay on SK-MEL-5 melanoma, > 100 µM. Moreover, the values for the TGI with T-47D breast and in the assay on UACC-62 melanoma were > 100 µM and 40.1 µM, respectively.

Consider `CCN1C(=O)N[C@H]2[C@@H]3NC(=O)c4ccc(Cl)n4[C@@H]3C[C@]21O`, for which the GI50 was 1.04 µM with HOP-92 NSCLC; 0.578 µM in the assay with HS 578T breast; 0.653 µM with MALME-3M melanoma; 1.05 µM in the assay on MDA-MB-435; 0.346 µM with MOLT-4 leukemia; 0.543 µM in the assay on NCI-H226 lung. Besides, the GI50 with NCI/ADR-RES ovarian is 12 µM; with SK-MEL-5 melanoma, 0.228 µM; in the assay on T-47D breast, 0.222 µM. Also, the TGI in the assay with HOP-92 NSCLC turned out to be 7.69 µM; in the assay on HS 578T breast, 13.2 µM; in the assay on MALME-3M melanoma it was 4.66 µM; in the assay on MDA-MB-435, 11.1 µM; in the assay with MOLT-4 leukemia, 2.37 µM; in the assay on NCI-H226 lung, 5.7 µM. Besides, the TGI with NCI/ADR-RES ovarian turned out to be 89.8 µM; in the assay with SK-MEL-5 melanoma, 0.711 µM; with T-47D breast it was 0.933 µM.

For `CCOC(=O)CC1C(CNC(=O)NC)OC(n2cnc3c(NC(=O)Nc4ccccc4)ncnc32)C1O[Si](C)(C)C(C)(C)C` (configuration not stated), the GI50 is 3.6 µM in the assay on HS 578T breast; 10.3 µM in the assay with MALME-3M melanoma; 6.21 µM in the assay with MDA-MB-435; 2.39 µM with MOLT-4 leukemia; > 100 µM with NCI-H226 lung; > 100 µM in the assay on NCI/ADR-RES ovarian. The GI50 in the assay with SK-MEL-5 melanoma was 4.34 µM; with T-47D breast it was 2.55 µM; with UACC-62 melanoma it was > 100 µM. Moreover, the TGI in the assay on HS 578T breast was 53.6 µM; in the assay with MALME-3M melanoma it was > 100 µM; in the assay on MDA-MB-435, > 100 µM; in the assay with MOLT-4 leukemia it was 23.3 µM; in the assay with NCI-H226 lung, > 100 µM; with NCI/ADR-RES ovarian, > 100 µM. The TGI in the assay on SK-MEL-5 melanoma, with T-47D breast and in the assay with UACC-62 melanoma was > 100 µM in each case.

Regarding `CCN(CC)CCOc1ccccc1-n1c(C)ccc1-c1ccccc1`, the GI50 in the assay with HOP-92 NSCLC is 12.6 µM; in the assay on HS 578T breast, 12.8 µM; in the assay with MALME-3M melanoma, 19.2 µM; in the assay with MDA-MB-435, 14.4 µM; in the assay on MOLT-4 leukemia it was 13.9 µM; in the assay with NCI/ADR-RES ovarian, 13.9 µM. Further, the figures for the GI50 in the assay on SK-MEL-5 melanoma, in the assay with T-47D breast and in the assay on UACC-62 melanoma were 12.8 µM, 15.7 µM and 15.8 µM, respectively. The TGI with HOP-92 NSCLC came out at 32.8 µM; in the assay with HS 578T breast it was 35.9 µM; with MALME-3M melanoma, 36.6 µM; in the assay on MDA-MB-435 it was 29.9 µM; in the assay on MOLT-4 leukemia it was 33.3 µM; in the assay on NCI/ADR-RES ovarian, 29.9 µM. The total growth inhibition concentration (TGI) with SK-MEL-5 melanoma was determined as 25.9 µM; in the assay with T-47D breast, 34.7 µM; in the assay on UACC-62 melanoma, 30.6 µM.

Take `Cc1ccc(Nn2c(SCC(=O)Nc3nc(-c4ccccc4)cs3)nc(C)c2C)cc1`: the GI50 is 34.1 µM with HS 578T breast; 2.48 µM with MALME-3M melanoma; 2.66 µM with MDA-MB-435; 3.46 µM with MOLT-4 leukemia; 3.04 µM in the assay with NCI/ADR-RES ovarian; 2 µM in the assay on SK-MEL-5 melanoma. In addition, the figures for the GI50 in the assay with T-47D breast and in the assay with UACC-62 melanoma were 1.85 µM and 3.15 µM, respectively. Moreover, the TGI in the assay on HS 578T breast is > 100 µM; with MALME-3M melanoma, 13.6 µM; in the assay on MDA-MB-435 it was 9.54 µM; in the assay with MOLT-4 leukemia, > 100 µM; in the assay on NCI/ADR-RES ovarian, 22.2 µM; in the assay with SK-MEL-5 melanoma it was 5.72 µM. The TGI in the assay with T-47D breast was 10.4 µM; with UACC-62 melanoma it was > 100 µM.

The GI50 is the concentration that inhibits growth by half. Usually TGI stands for the concentration at which net growth stops. A higher TGI goes with lower sensitivity of the cells.
